Target: T1, sigma-1 receptor (Cavia porcellus, UniProt Q60492)
T1 construct: guinea pig brains were homogenized; from tissue; host or cells: guinea pig brain membranes
Experiment: Sigma-1 receptor binding ([3H]-(+)-pentazocine, brain membranes)
Conditions: [3H]-(+)-pentazocine 0.5 nM, guinea pig brain membranes; for inhibition at 0.01 µM / Percent Inhibition Percent Concentration (μM) 0.0100 SIGMA-1 receptor: compound concentration 0.0100 μM; for inhibition at 0.01 µM: read-out: Percent Inhibition Percent Concentration (μM) 0.0100 SIGMA-1 receptor; for inhibition at 0.1 µM / Percent Inhibition Percent Concentration (μM) 0.1000 SIGMA-1 receptor: compound concentration 0.1000 μM; for inhibition at 0.1 µM: read-out: Percent Inhibition Percent Concentration (μM) 0.1000 SIGMA-1 receptor
Method: Brain membrane preparation and binding assays for the sigma-1 receptor were performed as described (DeHaven-Hudkins et al., Characterization of the binding of [^3H]-(+)-pentazocine to recognition sites in guinea pig brain, Eur. J. Pharmacol. 227, 371-378) with some modifications.
In brief, guinea pig brains were homogenized in 10 vols. (w/v) of Tris-HCl 50 mM, 0.32 M sucrose, pH 7.4, with a Kinematica Polytron PT 3000 at 15000 r.p.m. for 30 s. The homogenate was centrifuged at 1000 g for 10 min at 4° C. and the supernatants collected and centrifuged again at 48000 g for 15 min at 4° C. The pellet was resuspended in 10 volumes of Tris-HCl buffer (50 mM, pH 7.4), incubated at 37° C. for 30 min, and centrifuged at 48000 g for 20 min at 4° C. Following this, the pellet was resuspended in fresh Tris-HCl buffer (50 mM, pH 7.4) and stored on ice until use.
Each assay tube contained 10 μL of [^3H]-(+)-pentazocine (final concentration of 0.5 nM), 900 μL of the tissue suspension to a final assay volume of 1 mL and a final tissue concentration of approximately 30 mg tissue net weight/mL. Non-specific binding was defined by addition of a final concentration of […] haloperidol. All tubes were incubated at 37° C. for 150 min before termination of the reaction by rapid filtration over Schleicher & Schuell GF 3362 glass fibre filters [previously soaked in a solution of 0.5% polyethylenimine for at least 1 h]. Filters were then washed with four times with 4 mL of cold Tris-HCl buffer (50 mM, pH 7.4). Following addition of scintillation cocktail, the samples were allowed to equilibrate overnight. The amount of bound radioactivity was determined by liquid scintillation spectrometry using a Wallac Winspectral 1414 liquid scintillation counter. Protein concentrations were determined by the method of Lowry et al. (Protein measurement with the Folin phenol reagent, J. Biol. Chem, 193, 265).
The binding of the compounds of the present invention to sigma-1 receptors was tested as described above.

T1 sequence (Q60492 whole entry): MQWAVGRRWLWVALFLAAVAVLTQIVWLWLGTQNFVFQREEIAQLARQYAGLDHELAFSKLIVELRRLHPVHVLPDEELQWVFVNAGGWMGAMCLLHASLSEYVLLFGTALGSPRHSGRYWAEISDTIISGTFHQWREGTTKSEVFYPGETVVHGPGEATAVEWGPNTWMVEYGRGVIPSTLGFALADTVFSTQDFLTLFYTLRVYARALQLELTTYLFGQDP

Row | SMILES | Ki | inhibition at 0.01 µM | inhibition at 0.1 µM | Percent Inhibition Percent Concentration (μM) 0.0100 SIGMA-1 receptor | Percent Inhibition Percent Concentration (μM) 0.1000 SIGMA-1 receptor
1 | CC1(C)[C@H](CCOCc2ccccc2)C[C@@H]1CN1CCOCC1 [compound 1] | 6.1 nM | 62.8% | 79.7% |  | 
2 | CC1(C)[C@H](CCOCc2ccccc2)C[C@@H]1CN1CCCCC1 [compound 2] | 1.5 nM | 66.5% | 95.9% |  | 
3 | CC1(C)[C@H](CCOCc2ccccc2)C[C@@H]1CN1CCC(c2ccccc2)CC1 [compound 3] |  | 30.2% | 97.7% |  | 
4 | CC1(C)[C@H](CCOCc2ccccc2)C[C@@H]1CN1CCN(c2ccccc2)CC1 [compound 4] |  | 24.1% | 82.2% |  | 
5 | CN1CCN(C[C@H]2C[C@@H](CCOCc3ccccc3)C2(C)C)CC1 [compound 5] |  | 42.5% | 92.4% |  | 
6 | CC1(C)[C@@H](COCc2ccccc2)C[C@H]1CN1CCOCC1 [compound 6] | 1.3 nM | 91% | 98.4% |  | 
7 | CC1(C)[C@@H](COCc2ccccc2)C[C@H]1CN1CCCCC1 [compound 7] | 0.79 nM | 94.5% | 101% |  | 
8 | CC1(C)[C@@H](COCc2ccccc2)C[C@H]1CN1CCC(c2ccccc2)CC1 [compound 8] | 10.9 nM | 48.3% | 101% |  | 
9 | CC1(C)[C@@H](COCc2ccccc2)C[C@H]1CN1CCN(c2ccccc2)CC1 [compound 9] | 14.6 nM | 60% | 94.7% |  | 
10 | CN1CCN(C[C@@H]2C[C@H](COCc3ccccc3)C2(C)C)CC1 [compound 10] | 0.95 nM | 86.7% | 99.5% |  | 
11 | CC(O)[C@@H]1C[C@H](CCN2CCOCC2)C1(C)C (stereo partly drawn) [compound 11] |  | -8.3% | 44.4% |  | 
12 | CC(O)[C@@H]1C[C@H](CCN2CCCCC2)C1(C)C (stereo partly drawn) [compound 12] |  | 5.5% | 44.1% |  | 
13 | CC(O)(c1ccccc1)[C@@H]1C[C@H](CCN2CCOCC2)C1(C)C (stereo partly drawn) [compound 13] | 1.2 nM | 77.8% | 95.2% |  | 
14 | CC(O)(c1ccccc1)[C@@H]1C[C@H](CCN2CCCCC2)C1(C)C (stereo partly drawn) [compound 14] | 1.9 nM | 75.6% | 97.5% |  | 
15 | CC1(C)[C@@H](CCOc2ccccc2)C[C@H]1CN1CCOCC1 [compound 15] | 4.2 nM | 93.6% | 95.4% |  | 
16 | CC1(C)[C@@H](CCOc2ccccc2)C[C@H]1CN1CCCCC1 [compound 16] | 2.2 nM | 97.5% | 96.4% |  | 
17 | CC1(C)[C@@H](CCO)C[C@H]1CN1CCCCC1 [compound 17] | 41.8 nM | 45.2% | 61.5% |  | 
18 | CC1(C)[C@H](CCO)C[C@@H]1CN1CCCCC1 [compound 18] |  | -21.4% | 44.8% |  | 
19 | CC1(C)[C@@H](CCO)C[C@H]1CN1CCOCC1 [compound 19] |  | 17.1% | 42.3% |  | 
20 | CC1(C)[C@H](CCO)C[C@@H]1CN1CCOCC1 [compound 20] |  | 31.5% | 63.1% |  | 
21 | CC1CCN(C[C@@H]2C[C@H](CCO)C2(C)C)CC1 [compound 21] |  | 25.7% | 77.1% |  | 
22 | CC1(C)[C@@H](CCO)C[C@H]1CN1CCC(c2ccccc2)CC1 [compound 22] | 1.4 nM | 91.9% | 96.8% |  | 
23 | C[C@@H]1CN(C[C@@H]2C[C@H](CCO)C2(C)C)C[C@H](C)O1 [compound 23] |  | 27.6% | 70.6% |  | 
24 | CN(Cc1ccccc1)CC1CC(CCO)C1(C)C (stereo not drawn) [compound 24] | 3.3 nM | 69.7% | 92% |  | 
25 | CC1(C)[C@H](CO)C[C@@H]1CCN1CCC(Cc2ccccc2)CC1 [compound 25] | 1.2 nM | 83% | 98.3% |  | 
26 | COC(=O)C[C@H]1C[C@@H](CN2CCCCC2)C1(C)C [compound 26] |  | 23.9% | 50% |  | 

Row | SMILES | Ki | inhibition at 0.01 µM | inhibition at 0.1 µM | Percent Inhibition Percent Concentration (μM) 0.0100 SIGMA-1 receptor | Percent Inhibition Percent Concentration (μM) 0.1000 SIGMA-1 receptor
27 | CC1(C)[C@@H](CCOCc2ccccc2)C[C@H]1CN1CCCCC1 [compound 27] | 1.1 nM | 96.5% | 104% |  | 
28 | CC1CCN(C[C@@H]2C[C@H](CCOCc3ccccc3)C2(C)C)CC1 [compound 28] | 5 nM | 93.5% | 100% |  | 
29 | CC1(C)[C@@H](CCOCc2ccccc2)C[C@H]1CN1CCC(c2ccccc2)CC1 [compound 29] | 16.6 nM | 76.9% | 95.6% |  | 
30 | CC1(C)[C@@H](CCOCc2ccccc2)C[C@H]1CN1CCSCC1 [compound 30] | 1 nM | 74% | 91.8% |  | 
31 | CC1(C)[C@@H](CCOCc2ccccc2)C[C@H]1CN1CCOCC1 [compound 31] | 1.7 nM | 89.9% | 101% |  | 
32 | C[C@@H]1CN(C[C@@H]2C[C@H](CCOCc3ccccc3)C2(C)C)C[C@H](C)O1 [compound 32] | 3.6 nM | 94.6% | 99.1% |  | 
33 | CC1(C)[C@@H](CCOCc2ccccc2)C[C@H]1CN1CCCC1 [compound 33] | 0.6 ± 0.2 nM | 85.3% | 89.8% |  | 
34 | CN1CCN(C[C@@H]2C[C@H](CCOCc3ccccc3)C2(C)C)CC1 [compound 34] | 3.6 nM | 92.3% | 96.2% |  | 
35 | CN1CCN(C[C@@H]2C[C@H](CCOCc3ccccc3)C2(C)C)CC1.O=C(O)C(=O)O [compound 35] | 5.3 nM |  |  | 76.7% | 95.9%
36 | CC1(C)[C@@H](CCOCc2ccccc2)C[C@H]1CN1CCN(c2ccccc2)CC1 [compound 36] | 47 nM | 65.8% | 88.3% |  | 
37 | CC1(C)[C@@H](CCOCc2ccccc2)C[C@H]1CN1CCN(c2ccccc2)CC1.O=C(O)C(=O)O [compound 37] | 33.5 nM |  |  | 79.7% | 98.8%
38 | CC1(C)[C@H](COCc2ccccc2)C[C@@H]1CCN1CCCCC1 [compound 38] | 1.2 nM | 88.6% | 98.5% |  | 
39 | CC1(C)[C@H](COCc2ccccc2)C[C@@H]1CCN1CCOCC1 [compound 39] | 8.4 nM | 94.1% | 95.8% |  | 
40 | CC1(C)[C@@H](CCN2CCCC(c3ccccc3)C2)C[C@H]1CN1CCOCC1 (stereo partly drawn) [compound 40] |  | 16.3% | 60.1% |  | 
41 | CC1(C)[C@@H](CCN2CCC(Cc3ccccc3)CC2)C[C@H]1CN1CCOCC1 [compound 42] |  | 19.7% | 88% |  | 
42 | CC1(C)[C@@H](CCn2cccn2)C[C@H]1CN1CCOCC1 [compound 44] |  | 41.7% | 82.8% |  | 
43 | CC1(C)[C@@H](CCn2cncn2)C[C@H]1CN1CCOCC1 [compound 45] |  | 10.3% | 28.4% |  | 
44 | CC1(C)[C@@H](CCn2ccc3c2CCCC3=O)C[C@H]1CN1CCOCC1 [compound 46] | 13.5 nM | 50.2% | 83% |  | 
45 | CC1(C)[C@@H](CCN2CCc3ccccc3C2)C[C@H]1CN1CCOCC1 [compound 47] |  | 36.8% | 92% |  | 
46 | CC1(C)[C@@H](CCn2ccnc2)C[C@H]1CN1CCCCC1 [compound 48] |  | 34.3% | 72.4% |  | 
47 | CC1(C)[C@@H](CCn2cccn2)C[C@H]1CN1CCCCC1 [compound 49] | 4.9 nM | 45.7% | 92% |  | 
48 | CC1(C)[C@@H](CCn2cncn2)C[C@H]1CN1CCCCC1 [compound 50] |  | 2% | 20.9% |  | 
49 | CC1(C)[C@@H](CCN2CCC(c3ccccc3)CC2)C[C@H]1CN1CCCCC1 [compound 51] |  | 36.1% | 81.9% |  | 
50 | CC1(C)[C@@H](CCN2CCC(Cc3ccccc3)CC2)C[C@H]1CN1CCCCC1 [compound 52] |  | -0.6% | 52.6% |  | 
51 | CC1(C)[C@@H](CCn2ccc3c2CCCC3=O)C[C@H]1CN1CCCCC1 [compound 53] |  | -6.6% | 73.6% |  | 

Reference: patent US20100105680A1, “SUBSTITUTED DIMETHYLCYCLOBUTYL COMPOUNDS, THEIR PREPARATION AND USE IN MEDICAMENTS” (priority 2006, published 2010)
